From ChEMBL document CHEMBL3108753, “FGFR1 Kinase Inhibitors: Close Regioisomers Adopt Divergent Binding Modes and Display Distinct Biophysical Signatures” (ACS Med Chem Lett, 2014) come the findings set out here.

The Kd is the equilibrium constant for the complex coming apart.

Experiment [1] has as its target T1, Fibroblast growth factor receptor 1 (Homo sapiens, UniProt P11362). The experiment is described as follows: Binding affinity to N-terminal 6xHis-tagged human recombinant FGFR1 (458 to 765) by isothermal titration calorimetric analysis. A general note: Isothermal titration calorimetry measures the heat released or taken up as one component is titrated into another.

Experiment [2] has as its target T1, Fibroblast growth factor receptor 1. The experiment is described as follows: Inhibition of N-terminal GST-tagged human recombinant FGFR1 (456 to 765) after 40 mins by mobility shift assay.

T1 sequence (P11362 whole entry): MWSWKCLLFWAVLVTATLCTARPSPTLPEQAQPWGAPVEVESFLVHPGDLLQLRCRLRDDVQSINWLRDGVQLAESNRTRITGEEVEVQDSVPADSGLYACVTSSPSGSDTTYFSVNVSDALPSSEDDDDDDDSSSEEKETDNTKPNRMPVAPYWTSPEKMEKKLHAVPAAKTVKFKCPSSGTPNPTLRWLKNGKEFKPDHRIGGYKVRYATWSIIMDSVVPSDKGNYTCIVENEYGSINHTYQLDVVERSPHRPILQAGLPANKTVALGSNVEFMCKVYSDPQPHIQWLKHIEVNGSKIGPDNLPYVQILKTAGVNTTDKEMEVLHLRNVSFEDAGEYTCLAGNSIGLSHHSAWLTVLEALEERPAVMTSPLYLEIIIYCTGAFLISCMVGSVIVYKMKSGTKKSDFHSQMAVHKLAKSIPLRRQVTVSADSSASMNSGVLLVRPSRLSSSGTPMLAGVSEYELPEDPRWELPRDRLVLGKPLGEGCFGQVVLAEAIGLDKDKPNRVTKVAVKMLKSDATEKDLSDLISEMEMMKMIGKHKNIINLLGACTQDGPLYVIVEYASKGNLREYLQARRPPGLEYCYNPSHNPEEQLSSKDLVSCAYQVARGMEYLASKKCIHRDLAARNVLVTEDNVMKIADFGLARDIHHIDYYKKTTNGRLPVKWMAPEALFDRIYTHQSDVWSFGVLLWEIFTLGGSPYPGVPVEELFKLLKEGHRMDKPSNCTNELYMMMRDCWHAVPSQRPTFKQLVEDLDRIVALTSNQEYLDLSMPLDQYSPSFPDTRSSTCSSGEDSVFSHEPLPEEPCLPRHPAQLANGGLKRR

In the case of `COc1cc(CCc2cc(Nc3ccnc(NCc4cc(C)no4)n3)n[nH]2)cc(OC)c1`, the Kd in experiment [1] worked out at 5.8 nM. For the same compound, the IC50 in experiment [2] (read-out: IC50) stood at 60 nM.
As for `COc1ccc(CCc2cc(Nc3ccnc(NCc4cc(C)no4)n3)n[nH]2)cc1OC`, the Kd in experiment [1] came out at 447 nM. The values for the IC50 in experiment [2] (read-out: IC50) and in experiment [2] (read-out: pIC50 (converted)) were 20000 nM and 100 nM, respectively.
